According to the supplement of paper PMC11061612:

What was measured:
Experiment in all cases: Bliss excess, mean over the matrix (fraction); higher = more synergy
[1] = tested on: MOLT-16 (T-Lymphoblastic Leukemia)
Method in brief: (§1)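 Bliss excess equals the observed combination effect minus the expected value EA + EB − EA·EB, where EA and EB are the effects of each agent alone. Combination Emax is the second-highest inhibition within the matrix. Inhibition was scaled from CellTiter-Glo 2.0 luminescence, with 0 set by vehicle wells and 1 by blank wells, after 72 hours of two-drug dosing of cells plated in 1536-well plates.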

[2] = tested on: KARPAS-45 (T-Lymphoblastic Leukemia)
Method in brief: as §1

[3] = tested on: HL-60 (Acute Myeloid Leukemia)
Method in brief: as §1

[4] = tested on: DiFi (Colorectal Carcinoma)
Method in brief: as §1

[5] = tested on: P12-ICHIKAWA (T-Lymphoblastic Leukemia)
Method in brief: as §1

[6] = tested on: EVSA-T (Breast Carcinoma)
Method in brief: as §1

[7] = tested on: GR-ST (B-Lymphoblastic Leukemia)
Method in brief: as §1

[8] = tested on: K-562 (Chronic Myelogenous Leukemia)
Method in brief: as §1

[9] = tested on: NCI-H1792 (Lung Adenocarcinoma)
Method in brief: as §1

[10] = tested on: KM12 (Colorectal Carcinoma)
Method in brief: as §1

[11] = tested on: TC-71 (Ewing's Sarcoma)
Method in brief: as §1

[12] = tested on: KYSE-180 (Esophageal Squamous Cell Carcinoma)
Method in brief: as §1

[13] = tested on: WIL2-NS (Non-Cancerous)
Method in brief: as §1

[14] = tested on: MKN28 (Gastric Carcinoma)
Method in brief: as §1

[15] = tested on: SW1417 (Colorectal Carcinoma)
Method in brief: as §1

[16] = tested on: COLO-678 (Colorectal Carcinoma)
Method in brief: as §1

[17] = tested on: TOV-112D (Ovarian Carcinoma)
Method in brief: as §1

[18] = tested on: BFTC-905 (Bladder Carcinoma)
Method in brief: as §1

[19] = tested on: PANC-08-13 (Pancreatic Carcinoma)
Method in brief: as §1

[20] = tested on: CHP-212 (Neuroblastoma)
Method in brief: as §1

| Compound | Bliss excess [1] | Bliss excess [2] | Bliss excess [3] | Bliss excess [4] | Bliss excess [5] | Bliss excess [6] | Bliss excess [7] | Bliss excess [8] | Bliss excess [9] | Bliss excess [10] | Bliss excess [11] | Bliss excess [12] | Bliss excess [13] | Bliss excess [14] | Bliss excess [15] | Bliss excess [16] | Bliss excess [17] | Bliss excess [18] | Bliss excess [19] | Bliss excess [20] |
| --- | --- | --- | --- | --- | --- | --- | --- | --- | --- | --- | --- | --- | --- | --- | --- | --- | --- | --- | --- | --- |
| Cn1cnc2c(F)c(Nc3ccc(Br)cc3Cl)c(C(=O)NOCCO)cc21 [Selumetinib] + CC(C)n1c(=O)n(C)c2cnc3cc(F)c(-c4ccc(OCCCN5CCCCC5)nc4)cc3c21 [AZD1390] (first compound max 10 µM, 7x7, partner max 0.3 µM) | 0.0182 | -0.026 | -0.073 | 0.0004 | 0.0544 | -0.0185 | -0.0084 | -0.0345 | -0.0075 | -0.0376 | -0.0211 | -0.042 | -0.0251 | -0.0463 | -0.0094 | -0.0409 | -0.0262 | -0.0074 | -0.0365 | -0.0337 |
| CC1(C)CCC(CN2CCN(c3ccc(C(=O)NS(=O)(=O)c4ccc(NCC5CCOCC5)c([N+](=O)[O-])c4)c(Oc4cnc5[nH]ccc5c4)c3)CC2)=C(c2ccc(Cl)cc2)C1 [Venetoclax] + Cn1cnc2c(F)c(Nc3ccc(Br)cc3Cl)c(C(=O)NOCCO)cc21 [Selumetinib] (first compound max 1 µM, 7x7, partner max 3 µM) | 0.016 | 0.0372 | 0.0694 | -0.0967 | 0.0233 | -0.017 | -0.0318 | -0.0074 | 0 | -0.0213 | -0.0255 | -0.0128 | -0.0318 | -0.0012 | -0.0165 | -0.0298 | -0.0086 | -0.0116 | -0.0627 | -0.0011 |
| NC1(C(=O)N[C@@H](CCO)c2ccc(Cl)cc2)CCN(c2ncnc3[nH]ccc23)CC1 [Capivasertib] + COc1nnc2ccc(N3CCC(c4ccc(OCCN5CCN(C)C(=O)[C@H]5C)cc4)CC3)nn12 [AZD5153] (first compound max 10 µM, 7x7, partner max 1 µM) | 0.0458 | 0.0133 | 0.0346 | -0.056 | 0.0553 | -0.033 | -0.0565 | 0.0061 | 0.0039 | 0.0143 | 0.0228 | 0.0387 | -0.0933 | -0.0075 | -0.0135 | -0.0688 | 0.0088 | -0.0346 | 0.0483 | 0.0469 |
| CC1(C)CCC(CN2CCN(c3ccc(C(=O)NS(=O)(=O)c4ccc(NCC5CCOCC5)c([N+](=O)[O-])c4)c(Oc4cnc5[nH]ccc5c4)c3)CC2)=C(c2ccc(Cl)cc2)C1 [Venetoclax] + CN(C)CCCOc1ccc(-c2ccc3ncc4c(c3c2)n(C2CCOCC2)c(=O)n4C)cn1 [AZD0156] (first compound max 1 µM, 7x7, partner max 1 µM) | 0.0462 | -0.0096 | 0.0448 | 0.0216 | 0.0509 | -0.0005 | -0.0363 | -0.0005 | 0.0133 | -0.0126 | -0.0022 | -0.0128 | -0.0296 | 0.0042 | -0.0332 | -0.0549 | -0.0341 | 0.0232 | 0.0037 | -0.034 |
| Cn1cnc2c(F)c(Nc3ccc(Br)cc3Cl)c(C(=O)NOCCO)cc21 [Selumetinib] + C=CCn1c(=O)c2cnc(Nc3ccc(N4CCN(C)CC4)cc3)nc2n1-c1cccc(C(C)(C)O)n1 [AZD1775] (first compound max 10 µM, partner max 1 µM) | 0.0252 | 0.0001 | -0.0732 | 0.0233 | 0.0595 | -0.015 | -0.0368 | 0.0752 | -0.0647 | -0.0672 | -0.039 | -0.122 | 0.0363 | -0.0192 | 0.0387 | 0.0011 | -0.0497 | -0.0654 | -0.0849 | -0.0257 |
| Cn1cnc2c(F)c(Nc3ccc(Br)cc3Cl)c(C(=O)NOCCO)cc21 [Selumetinib] + C[C@@H]1COCCN1C2=NC(=NC(=C2)C3(CC3)[S@](=N)(=O)C)C4=C5C=CNC5=NC=C4 [AZD6738] (first compound max 10 µM, 7x7, partner max 10 µM) | 0.0063 | 0.0047 | -0.039 | 0.0092 | 0.0286 | -0.0377 | -0.0301 | -0.0116 | -0.0049 | 0.0286 | -0.022 | -0.0249 | -0.033 | -0.0316 | 0.0363 | 0.132 | -0.0377 | -0.0351 | -0.0351 | -0.0474 |
| CS(=O)(=O)CCNCc1ccc(-c2ccc3ncnc(Nc4ccc(OCc5cccc(F)c5)c(Cl)c4)c3c2)o1 [Lapatinib] + C[C@@H](Oc1cc(-c2cnn(C3CCNCC3)c2)cnc1N)c1c(Cl)ccc(F)c1Cl [Crizotinib] (first compound max 10 µM, 7x7, partner max 10 µM) | 0.0062 | 0.0044 | 0.019 | 0.0187 | -0.0077 | -0.0359 | -0.025 | -0.0453 | -0.0342 | -0.0327 | -0.0079 | 0.0476 | -0.0273 | -0.0477 | -0.0165 | -0.0488 | 0.0028 | -0.0525 | -0.0246 | -0.0741 |
